Four compounds from patent publication US20130109643A1, “METABOLIC INHIBITOR AGAINST TUMORS HAVING AN IDH MUTATION” (The Johns Hopkins University, priority 2010, published 2013) can be followed below.

The subject of test [1] is primary acute myelogenous leukemia (AML) cells with mutant or wild-type IDH1. The test is described as follows: Growth curves of primary AML cells (trypan blue counting). Type of test: cell-based, human. Conditions: BPTES at 20 or 40 μM vs DMSO vehicle. Here is the method:
Primary AML cells were cultured in RPMI-1640 media with 20% fetal bovine serum (FBS), 20% 5637 cell-conditioned media and 1% antibiotics as previously described (Miyauchi et al., 1987). Growth curves were generated by manual counting of viable cells as assessed by trypan blue exclusion on a hemocytometer. The detail of the procedure is as following: (1) The frozen cells are thawed and added into 10 mL of the media in a tissue culture flask and grown in a humidified incubator at 37° C. and 5% CO2 for 4-5 days. Cells were counted every 24-48 h to estimate the cells needed for the experiment. […] Then, 10-20 mL media containing each desired concentration of the drug were prepared. […] By doing this, the concentration of DMSO is constant and not more than 0.1%. BPTES is precipitated in PBS, so avoid dilution with PBS. […] When the cells were well homogenized, they were counted by 1:1 trypan blue exclusion with hemocytometer. […] The starting number for each cell line among control/DMSO/drug must be the same and is calculated based on the count from the cell-containing PBS solution. […] (6) Cells were counted every other day using a hemocytometer after staining with trypan blue (1:1). […] Cells were counted in the 4 outer squares of the hemocytometer, and the number was divided by 2 (=n). […] When cell concentration was low, more grids were counted and the cell concentrations were calculated accordingly.

Test [2] relates to transformed normal human astrocytes (TNA) overexpressing R132H or WT IDH1. In words: alamarBlue cell growth assay, transformed normal human astrocytes (TNA) expressing WT or R132H IDH1. Type of test: cell-based. Conditions: 48 hours. The protocol:
Standard techniques were used to introduce the R132H mutation into human IDH1 engineered with a 6×-His-tag and produce lentivirus containing either WT or mutant IDH1. D54 cells or transformed normal human astrocytes (TNA) were transduced with virus, and lines were grown from individual cells using limiting dilution. IDH1 expression in response to […] doxycycline was confirmed using a 6×-His tag antibody (Millipore). Liquid chromatography/mass spectrometry was conducted as previously described. Dang L., et al., Cancer-associated IDH1 mutations produce 2-hydroxyglutarate. Nature 2009; 462:739-44. siRNA was used to knock down glutaminase, and cells were assessed for knockdown using Western blotting. Gao P., et al., c-Myc suppression of miR-23a/b enhances mitochondria/glutaminase expression and glutamine metabolism. Nature 2009; 458:762-5. Cell growth assays using alamarBlue were carried out as described following DMSO or bis-2-(5-phenylacetamido-1,2,4-thiadiazol-2-yl)ethyl sulfide (BPTES) treatment. Liolome W., et al., Glioblastoma cell growth is suppressed by disruption of Fibroblast Growth Factor pathway signaling. J Neurooncol 2009:94:359-66. […] [3H]-glutamate was isolated from the reaction mixture using anion exchange and measured using a scintillation counter. […] Data were evaluated using a two-tailed Student's t-test. P≦0.05 was considered significant. […]
For orientation: The colour change of resazurin is a common sign of viable cells or microbes.

Test [3] has as its system mutant IDH1 cells. The test is described as follows: Caspase 3/7 activation assay (Caspase-Glo 3/7). The format is cell-based, human. Conditions: 10 μM BPTES, 24 hrs, vs DMSO. Here is the method: Cells were plated at a density of 5000 cells/well in a 96-well black clear bottom plate (Becton Dickinson). 24 hrs after plating, media was changed to fresh media with or without 0.04 μg/mL doxycycline.

Test [4] deals with D54 cells overexpressing WT or R132H IDH1. In words: LC/MS metabolite levels in WT and mutant IDH1 D54 cells. Type of test: cell-based, human. Particulars: 10 mmol/L BPTES, 48 hours. Here is the method: (§1) Standard techniques were used to introduce the R132H mutation into human IDH1 engineered with a 6×-His-tag and produce lentivirus containing either WT or mutant IDH1. D54 cells or transformed normal human astrocytes (TNA) were transduced with virus, and lines were grown from individual cells using limiting dilution. IDH1 expression in response to […] doxycycline was confirmed using a 6×-His tag antibody (Millipore). Liquid chromatography/mass spectrometry was conducted as previously described. Dang L., et al., Cancer-associated IDH1 mutations produce 2-hydroxyglutarate. Nature 2009; 462:739-44. siRNA was used to knock down glutaminase, and cells were assessed for knockdown using Western blotting. Gao P., et al., c-Myc suppression of miR-23a/b enhances mitochondria/glutaminase expression and glutamine metabolism. Nature 2009; 458:762-5. Cell growth assays using alamarBlue were carried out as described following DMSO or bis-2-(5-phenylacetamido-1,2,4-thiadiazol-2-yl)ethyl sulfide (BPTES) treatment. Liolome W., et al., Glioblastoma cell growth is suppressed by disruption of Fibroblast Growth Factor pathway signaling. J Neurooncol 2009:94:359-66. […] [3H]-glutamate was isolated from the reaction mixture using anion exchange and measured using a scintillation counter. […] Data were evaluated using a two-tailed Student's t-test. P≦0.05 was considered significant.
3×10^5 (untreated) or 7.5×10^5 (BPTES-treated) cells were seeded in a T75 flask. 24 hrs post-plating, media on the cells was changed to 4.5 g/L glucose, 10% HyClone dialyzed FBS (ThermoScientific), penicillin/streptomycin, 4 mM glutamine and 0.04 μg/mL doxycycline to induce IDH1 expression. […] Metabolites were measured in one of two ways: using a reverse phase column with tributylamine as an ion pairing agent, Luo B., et al., Simultaneous determination of multiple intracellular metabolites in glycolysis, pentose phosphate pathway and tricarboxylic acid cycle by liquid chromatography-mass spectrometry. J Chromatogr 2007; 1147(2):153-64, coupled to a Thermo Exactive Mass Spectrometer operating at 100,000 resolving power using a mass range of ±5 ppm or single reaction monitoring on a Thermo TSQ Quantum Triple Quadrupole Mass Spectrometer coupled to an aminopropyl HPLC column. Bajad S. U., et al., Separation and quantitation of water soluble cellular metabolites by hydrophilic interaction chromatography-tandem mass spectrometry. J Chromatogr 2006; 1125(1):76-88. Signals were normalized to cell number prior to data analysis.

The subject of test [5] is mutant IDH1 cells. The test is described as follows: Annexin V staining (flow cytometry). The format is cell-based, human. Particulars: 10 μM BPTES, 24 hrs, vs DMSO. Here is the method:
Cells were plated at a density of 2×10^5 cells/well in a 6-well plate. Media was changed to media with or without doxycyline 24 hrs after plating.

Test [6] has as its system D54 glioblastoma cells overexpressing WT or R132H IDH1. The test is described as follows: alamarBlue cell growth assay, D54 glioblastoma lines overexpressing WT or R132H IDH1. Type of test: cell-based, human. Here is the method: as §1
D54 or TNA cells were transduced with virus containing WT or R132H IDH1. D54 cells were transduced using virus containing pLVCT-tTR-KRAB constructs, and TNA were transduced with virus containing Duet011 constructs. Lines were grown from individual cells using limiting dilution and tested for IDH1 expression. Expression was confirmed using Western blot and 6×-His-tag antibodies (Millipore). 0.04 μg/mL doxycycline was used to induce expression for D54 lines. Cells were maintained in DMEM, 10% FBS, 4.5 g/L glucose, and penicillin/streptomycin. Transformed normal human astrocytes (TNA) were a gift from Christopher M. Counter.
Cell growth assays using alamarBlue were carried out as described. Loilome W., et al., Glioblastoma cell growth is suppressed by disruption of Fibroblast Growth Factor pathway signaling. J Neurooncol 2009; 94(3):359-66. Cells were plated at a density of 500 cells/well in a 96-well black clear bottom plate (Becton Dickinson).

As for `O=C(Cc1ccccc1)Nc1nnc(CCSCCc2nnc(NC(=O)Cc3ccccc3)s2)s1` [BPTES], in test [1], the “cell killing, mIDH1 vs wild-type AML cells” value is on record as “selectively kills”. Moreover, the “sensitivity of growth, mutant vs WT IDH1 cells” value (“sensitivity … vs WT IDH1 cells” below) in test [2] was “mutant IDH1 cells also were more sensitive”. In the test on mutant IDH1 cells [3], the “Caspase 3/7 induction” value is on record as “does not increase”. In addition, in test [4], the “levels of glycolytic intermediates (fructose-1,6-bisphosphate, dihydroxy-acetone-phosphate, 3-phosphoglycerate)” value was “increased”; the “tricarboxylic acid cycle intermediates (succinate and malate) and aspartate levels” value is recorded as “decreases”. Also, the citrate levels entry in test [4] (WT IDH1 cells) is given as “decreased”. For the same compound, in test [4] (WT and mutant IDH1 cells), the glutamate levels entry is recorded as “diminished” and the α-KG levels result was “diminished”. For the same compound, the citrate levels entry in test [4] (mutant IDH1 cells) was “increased”. The 2-HG levels result in test [4] (treated mutant IDH1 cells) is given as “remained unchanged”. For the same compound, the “Annexin V staining” value with mutant IDH1 cells [5] is “does not increase”. In test [6] (D54+R132H compared with D54 and D54+WT IDH1, 48 hours), the “effect on growth, mutant vs WT IDH1 cells” value is listed as “preferentially slowed growth of mutant IDH1 cells”. In test [6] (mutant IDH1 D54 cells, 48 hours), the growth reduction entry was “about 20%”.

For the compound `O=C(O[C@@H]1Cc2c(O)cc(O)cc2O[C@@H]1c1cc(O)c(O)c(O)c1)c1cc(O)c(O)c(O)c1` [EGCG, epigallocatechin gallate], the “sensitivity … vs WT IDH1 cells” value in test [6] (EGCG, 0.1 g/L glucose, 72 hrs) is recorded as “more sensitive”.

With `NOCC(=O)O` [AOA, amino-oxyacetic acid], the “sensitivity … vs WT IDH1 cells” value in test [6] (AOA, 1.5 g/L glucose, 48 hrs) is “more sensitive”.

As to `COC(=O)CCC(=O)C(=O)OC` [dimethyl-α-ketoglutarate], the “rescue of BPTES growth inhibition at higher BPTES concentrations” value in test [6] (1 mmol/L dimethyl-α-ketoglutarate, 50 or 100 mmol/L BPTES) is reported as “not blocked”. Further, in test [6] (mutant IDH1 cells, 1 mmol/L dimethyl-α-ketoglutarate added to BPTES), the “rescue of BPTES growth inhibition” value is “significantly reduced growth inhibition”.
